How the values were obtained:
[1] = biological target: T1, human rpL35 (Homo sapiens, UniProt P42766); details: cited from earlier work
[2] = tested on: Lamb3-FF; assay: In-vivo dual luciferase reporter read-out in yeast cells, Lamb3-FF reporter; assay type: cell-based; details: for protein expression level of Lamb3-FF luciferase reporter upon small molecule treatment: combined read-outs of 2, 4 and 10 μM; for increase for Lamb3-FF protein expression: not significant
Description: (§1) Luciferase read-out data are represented normalized to the individual luciferase reporter (Ren, Lamb3-FF, Lamb3-PTC-FF) read-outs in the untreated state set at 100% (normalizer); for renilla control—the untreated state—mean and standard deviation of quantifications from twelve biological replicates, each with six technical replicates (72 reads), are shown. For Lamb3-FF control—the untreated state—mean and standard deviation of quantifications from six biological replicates, each with six technical replicates (36 reads), are shown. For Lamb3-PTC control—the untreated state—mean and standard deviation of quantifications from two biological replicates, each with six technical replicates (12 reads), are shown. Quantification upon treatment with ART and ATZ, respectively, for both, Ren (216 reads) and Lamb3-FF (105 reads), is shown by combining read-out data obtained by treatment with 2, 4, and 10 μM ART and ATZ (treated), respectively, and is normalized to the respective untreated control (normalizer). For luciferase reporter read-outs of Lamb3-PTC-FF treated with 2 μM, 4 μM and 10 μM ART and 2, 4, and 10 nM ATZ, respectively, mean and standard deviation of quantification from two biological replicates for ART (12 reads) and three biological replicates for ATZ (18 reads), with six technical replicates each, are shown normalized to Lamb3-PTC-FF control.
Obtaining evidence for drug directed manipulation of rpL35 to selectively increase full-length Lamb3-PTC expression has to be tested in functional assays. The inventors opted to first test small molecule action in the versatile yeast cell factory, employing the dual luciferase reporter system used in the original 2-SSRS (Bauer et al., 2013).

[3] = tested on: Lamb3PTC; assay: Hela in vitro translation assays; assay type: biochemical, human
[4] = tested on: Lamb3-PTC-FF; assay: In-vivo dual luciferase reporter read-out in yeast cells, Lamb3-PTC-FF reporter; assay type: cell-based; details: normalized to untreated control
Description: as §1
(§2) Luciferase read-out data are represented normalized to the individual luciferase reporter (Lamb3-FF, Lamb3-PTC-FF, FF, and FF-PTC) of a respective control in the untreated state set at 100% (normalizer). Twelve biological replicates (n=12) for all detections. Normalization for treatment is shown, additional controls were run, but are not shown. Dosages: ART 2 μM, ATZ 1.6 nM and erythromycin 4 μM, respectively. Combination treatment […] are 50 nM and 0.08 nM, respectively, i.e. 40-fold and 20-fold less than individually applied compounds.
The inventors opted to first test small molecule action in the versatile yeast cell factory, employing the dual luciferase reporter system used in the original 2-SSRS (Bauer et al., 2013).

[5] = biological target: T1, human rpL35; assay: NMR titration series (2D 1H,15N HSQC) of 15N rpL35-His6 with ligand; assay type: binding; parameters: MBP (N, cleaved yes); made in house; host or cells: E. coli BL21; details: for number of amide signals with significant chemical shift perturbations: HSQC spectrum upon ligand addition; for binding to human rpL35 by NMR titration: changes in NMR spectra in presence of small molecule
Experimental: NMR experiments were recorded at 25° C. (298K) on a 700 MHz Bruker Ascend spectrometer equipped with cryogenically cooled TCI probe. All spectra were processed using Topspin 3.5 and analyzed with CARA 1.8.4.2. (Keller R. Optimizing the Process of Nuclear Magnetic Resonance Spectrum Analysis and Computer Aided Resonance Assignment. ETH Zurich; 2004) and NMRFAM-Sparky (Lee W, Tonelli M, Markley J L. NMRFAM-SPARKY: enhanced software for biomolecular NMR spectroscopy. Bioinformatics. 2015 Apr. 15; 31(8):1325-7). Concentration of ^15N labeled rpL35-His6 ranged from 200 to 400 μM and the sample was measured in a salt tolerant susceptibility matched slot tube (Shigemi™) with total volume of 170 μl.
NMR spectroscopy is able by comparative analysis of protein vs. protein+small molecule binder to asses binding sites of the small molecule on the protein. In this initial study the affinity of rpL35 towards artesunate and atazanavir was established by a simple titration series in which the inventors have been tracking perturbations to chemical shifts and peak heights in the 2D ^1H, ^15N HSQC spectrum. Aliquots of artesunate/atazanavir were added into the solution of ^15N rpL35 of which 2D 1H, ^15N HSQC spectrum was recorded immediately upon ligand addition. Perturbations of protein chemical shifts in ^15N HSQC spectrum are indicative of changes to the chemical environment of amide groups caused by binding of a ligand to the protein target.
Following the artesunate-protein rpL35 complex titration, the inventors have recorded 3D spectra of the same sample using ^15N NOESY-HSQC, ^15N TOCSY-HSQC, HNHA pulse sequences. The inventors extracted chemical shifts of amide ^1H, ^15N, HA, HB from the above mentioned spectra, and compared measured values with the average chemical shifts of common amino acids in Biological Magnetic resonance Data Bank (BMRB; http://www.bmrb.wisc.edu). In the 3D ^1H, ^15N NOESY-HSQC the inventors focused also on the presence of water signal which can indicate if the amino group is solvent accessible. […] However, collection of the basic set of chemical shifts mentioned earlier allowed the inventors to estimate amino acid type since many of them have quite characteristic values (e. g. alanine, threonine, and glycine). 3D ^15N TOCSY-HSQC helped the inventors to differentiate between amino acid types which have similar NH chemical shifts, such as leucine, lysine, valine. […] Using this approach the inventors obtained a set of protein signals which changed their position in 2D ^1H^15N-HSQC spectrum upon interaction with the ligand (artesunate, atazanavir) and information on the most probable amino acid type. […]

[6] = tested on: renilla luciferase reporter; assay: In-vivo dual luciferase reporter read-out in yeast cells, renilla luciferase reporter; assay type: cell-based; details: combined read-outs of 2, 4 and 10 μM
Description: as §1, with “control. […]” for “control.”

[7] = tested on: FF-PTC; assay: In-vivo dual luciferase reporter read-out in yeast cells, FF-PTC reporter; assay type: cell-based; details: erythromycin 4 μM; indicator of lack of specific activity
Experimental: as §2

[8] = tested on: laminin 332; details: primary keratinocytes from three GS-JEB patients; cited from earlier work
[9] = tested on: Lamb3 protein with the R635XPTC mutation; details: very high, therapeutically not applicable dose; cited from earlier work

Row | Molecule | binding to human rpL35 in biotinylation assay [1] | protein expression level of Lamb3-FF luciferase reporter upon small molecule treatment [2] | increase for Lamb3-FF protein expression ([2]; treatment with 4 μM) | increase for Lamb3-FF protein expression ([2]; treatment with 10 μM) [fold] | Lamb3PTC expression [3] | increase in full-length Lamb3-PTC-FF protein expression ([4]; treatment with 2 μM) [fold] | number of amide signals with significant chemical shift perturbations [5] | binding to human rpL35 by NMR titration [5] | protein expression level of renilla luciferase reporter upon small molecule treatment [6] | increase in full-length Lamb3-PTC-FF protein expression ([4]; treatment with 4 μM) [fold] | increase in full-length Lamb3-PTC-FF protein expression ([4]; treatment with 10 μM) [fold] | FF-PTC reporter read-out upon treatment [7] | induction of functional laminin 332 [8] | Lamb3 protein expression relative to normal level [9] [%]
1 | C[C@H]1[C@H](OC(=O)CCC(=O)O)O[C@@H]2O[C@@]3(C)CC[C@H]4[C@H](C)CC[C@@H]1[C@@]24OO3 [artesunate] | binder of human rpL35 | no significant increase | 1,1 fold | 1.2 | increase | 2.2 | 10 | bind human rpL35 protein at several possible binding pockets | no significant increase | – | – | – | – | –
2 | COC(=O)N[C@H](C(=O)N[C@@H](Cc1ccccc1)[C@@H](O)CN(Cc1ccc(-c2ccccn2)cc1)NC(=O)[C@@H](NC(=O)OC)C(C)(C)C)C(C)(C)C [atazanavir] | – | no significant increase | – | – | increase | 1.8 | 5 | bind human rpL35 protein at several possible binding pockets | no significant increase | 1.9 | 2.2 | – | – | –
3 | CC[C@H]1OC(=O)[C@H](C)[C@@H](O[C@H]2C[C@@](C)(OC)[C@@H](O)[C@H](C)O2)[C@H](C)[C@@H](O[C@@H]2O[C@H](C)C[C@H](N(C)C)[C@H]2O)[C@](C)(O)C[C@@H](C)C(=O)[C@H](C)[C@@H](O)[C@]1(C)O [erythromycin] | – | – | – | – | – | – | – | – | – | – | – | increase | – | –
4 | gentamicin | – | – | – | – | – | – | – | – | – | – | – | – | induced functional laminin 332 | 30

From patent US20230288402A1, “MOLECULES TARGETING RIBOSOMAL PROTEIN RPL35/UL29 FOR USE IN THE TREATMENT OF DISEASES, IN PARTICULAR EPIDERMOLYSIS BULLOSA (EB)” (KBHB CONSULT GMBH, priority 2020, published 2023)
